Measured values as given in PubChem BioAssay AID248 (DTP/NCI, 2004).
Several values for one entry are separate records, joined by “and”; a condition that tells them apart may be missing. Equal values may be shown once. Inconclusive results and toxic doses are left out. Rule as the data show it: active = T/C of 150% or more; inactive = T/C below 125%.

Test system: L1210 leukemia ip in BDF1 mice, survival T/C
Assay: NCI In Vivo Anticancer Drug Screen. Data for tumor model L1210 Leukemia (intraperitoneal) in B6D2F1 (BDF1) mice
Conditions: endpoint: mean survival time, higher = longer survival
In short: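 Transplanted-tumor mice were given test agent; controls received vehicle only. Survival readings from the two groups were divided (treated over control).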

[1] = dose: 100.0 mg/kg/injection, schedule: Q01DX001 (ip), vehicle: saline
[2] = dose: 200.0 mg/kg/injection, schedule: Q01DX001 (ip), vehicle: saline
[3] = dose: 400.0 mg/kg/injection, schedule: Q01DX001 (ip), vehicle: saline
[4] = dose: 100.0 mg/kg/injection, schedule: Q01DX001 (ip), vehicle: Klucel (hydroxypropylcellulose) (HPC)
[5] = dose: 100.0 mg/kg/injection, schedule: Q01DX009 (ip), vehicle: Klucel (hydroxypropylcellulose) (HPC)
[6] = dose: 200.0 mg/kg/injection, schedule: Q01DX001 (ip), vehicle: Klucel (hydroxypropylcellulose) (HPC)
[7] = dose: 200.0 mg/kg/injection, schedule: Q01DX009 (ip), vehicle: Klucel (hydroxypropylcellulose) (HPC)
[8] = dose: 400.0 mg/kg/injection, schedule: Q01DX001 (ip), vehicle: Klucel (hydroxypropylcellulose) (HPC)
[9] = dose: 400.0 mg/kg/injection, schedule: Q01DX009 (ip), vehicle: Klucel (hydroxypropylcellulose) (HPC)
[10] = dose: 25.0 mg/kg/injection, schedule: Q04DX003 (ip), vehicle: saline
[11] = dose: 50.0 mg/kg/injection, schedule: Q04DX003 (ip), vehicle: saline
[12] = dose: 100.0 mg/kg/injection, schedule: Q01DX009 (ip), vehicle: saline
[13] = dose: 200.0 mg/kg/injection, schedule: Q01DX009 (ip), vehicle: saline
[14] = dose: 100.0 mg/kg/injection, schedule: Q01DX001 (ip), vehicle: carboxymethylcellulose (CMC)
[15] = dose: 200.0 mg/kg/injection, schedule: Q01DX001 (ip), vehicle: carboxymethylcellulose (CMC)
[16] = dose: 400.0 mg/kg/injection, schedule: Q01DX001 (ip), vehicle: carboxymethylcellulose (CMC)
[17] = dose: 100.0 mg/kg/injection, schedule: Q04DX003 (ip), vehicle: saline with Tween-80
[18] = dose: 200.0 mg/kg/injection, schedule: Q04DX003 (ip), vehicle: saline with Tween-80
[19] = dose: 50.0 mg/kg/injection, schedule: Q01DX001 (ip), vehicle: saline
[20] = dose: 25.0 mg/kg/injection, schedule: Q01DX009 (ip), vehicle: Klucel (hydroxypropylcellulose) (HPC)
[21] = dose: 50.0 mg/kg/injection, schedule: Q01DX009 (ip), vehicle: Klucel (hydroxypropylcellulose) (HPC)

Measured: T/C

O=C(c1cc(=O)[nH]c(=O)[nH]1)N(CCO)CCO
inactive: dose: 100.0 mg/kg/injection, schedule: Q01DX Z (ip), vehicle: saline 106 % of control | dose: 200.0 mg/kg/injection, schedule: Q01DX Z (ip), vehicle: saline 93 % of control

c1ccc([B-](c2ccccc2)(c2ccccc2)[C+]2CCCCC2)cc1 (tested in a mixture with another compound)
inactive: [1] 105 % of control | [2] 108 % of control | [3] 108 % of control

Cc1ccc(-c2nnc(-c3ccccc3)n2-c2cc(C(=O)O)ccc2C)cc1
inactive: [4] 89 % of control | [5] 91 % of control | [6] 91 % of control | [7] 98 % of control | [8] 97 % of control | [9] 98 % of control

CCN(CC)C(=O)C1CN2CCc3cc(OC)c(OC)cc3C2CC1O (stereo not drawn)
inactive: dose: 25.0 mg/kg/injection, schedule: Q01DX009 (ip), vehicle: saline 97 % of control | [10] 108 % of control | dose: 50.0 mg/kg/injection, schedule: Q01DX009 (ip), vehicle: saline 105 % of control | [11] 105 % of control | [12] 103 % of control | dose: 100.0 mg/kg/injection, schedule: Q04DX003 (ip), vehicle: saline 97 % of control | [13] 118 % of control | dose: 200.0 mg/kg/injection, schedule: Q04DX003 (ip), vehicle: saline 110 % of control | dose: 400.0 mg/kg/injection, schedule: Q01DX009 (ip), vehicle: saline 115 % of control | dose: 400.0 mg/kg/injection, schedule: Q04DX003 (ip), vehicle: saline 105 % of control

Cc1ccc(S(=O)(=O)OCC2OCOC2C2OCOC2C)cc1 (stereo not drawn)
inactive: dose: 100.0 mg/kg/injection, schedule: Q01DX001 (ip), vehicle: saline with Tween-80 104 % of control | dose: 200.0 mg/kg/injection, schedule: Q01DX001 (ip), vehicle: saline with Tween-80 93 % of control | dose: 400.0 mg/kg/injection, schedule: Q01DX001 (ip), vehicle: saline with Tween-80 97 % of control

[N-]=[N+]=Nc1ccc(S(=O)(=O)Nc2ncccn2)cc1
inactive: [14] 113 % of control | dose: 100.0 mg/kg/injection, schedule: Q01DX009 (ip), vehicle: carboxymethylcellulose (CMC) 93 % of control | dose: 100.0 mg/kg/injection, schedule: Q04DX002 (ip), vehicle: carboxymethylcellulose (CMC) 100 % of control and 108 % of control | dose: 100.0 mg/kg/injection, schedule: Q04DX003 (ip), vehicle: carboxymethylcellulose (CMC) 104 % of control | [15] 108 % of control | dose: 200.0 mg/kg/injection, schedule: Q01DX009 (ip), vehicle: carboxymethylcellulose (CMC) 88 % of control | dose: 200.0 mg/kg/injection, schedule: Q04DX002 (ip), vehicle: carboxymethylcellulose (CMC) 102 % of control and 103 % of control | dose: 200.0 mg/kg/injection, schedule: Q04DX003 (ip), vehicle: carboxymethylcellulose (CMC) 96 % of control | [16] 90 % of control | dose: 400.0 mg/kg/injection, schedule: Q01DX009 (ip), vehicle: carboxymethylcellulose (CMC) 98 % of control | dose: 400.0 mg/kg/injection, schedule: Q04DX002 (ip), vehicle: carboxymethylcellulose (CMC) 103 % of control and 107 % of control | dose: 400.0 mg/kg/injection, schedule: Q04DX003 (ip), vehicle: carboxymethylcellulose (CMC) 110 % of control

O=C(O)C1CCCCC1C(=O)Nc1ccc(Cl)cc1 (stereo not drawn)
inactive: dose: 50.0 mg/kg/injection, schedule: Q01DX009 (ip), vehicle: saline with Tween-80 88 % of control | dose: 100.0 mg/kg/injection, schedule: Q01DX009 (ip), vehicle: saline with Tween-80 87 % of control | [17] 96 % of control | dose: 200.0 mg/kg/injection, schedule: Q01DX009 (ip), vehicle: saline with Tween-80 98 % of control | [18] 97 % of control

CN(C)C(=O)SSC(=S)N(C)C
inactive: dose: 4.0 mg/kg/injection, schedule: Q01DX015 (ip), vehicle: carboxymethylcellulose (CMC) 93 % of control | dose: 8.0 mg/kg/injection, schedule: Q01DX015 (ip), vehicle: carboxymethylcellulose (CMC) 92 % of control | dose: 16.0 mg/kg/injection, schedule: Q01DX015 (ip), vehicle: carboxymethylcellulose (CMC) 106 % of control | dose: 32.0 mg/kg/injection, schedule: Q01DX015 (ip), vehicle: carboxymethylcellulose (CMC) 97 % of control and 98 % of control | dose: 64.0 mg/kg/injection, schedule: Q01DX015 (ip), vehicle: carboxymethylcellulose (CMC) 98 % of control | dose: 128.0 mg/kg/injection, schedule: Q01DX015 (ip), vehicle: carboxymethylcellulose (CMC) 96 % of control

CC(C)(C)OC(=O)CC(O)c1ccccc1 (stereo not drawn)
inactive: [19] 94 % of control | [1] 102 % of control | [2] 105 % of control | [3] 102 % of control

COC(OC)c1nc(N)[nH]c(=O)c1Cc1ccc([N+](=O)[O-])cc1
inactive: [4] 110 % of control | [6] 102 % of control | [8] 96 % of control

COC1OC(COC(=S)SCc2ccccc2)C(O)C(O)C1O (stereo not drawn)
inactive: dose: 50.0 mg/kg/injection, schedule: Q04DX002 (ip), vehicle: saline 113 % of control | dose: 100.0 mg/kg/injection, schedule: Q04DX002 (ip), vehicle: saline 110 % of control | dose: 200.0 mg/kg/injection, schedule: Q04DX002 (ip), vehicle: saline 92 % of control

Nc1ccc2c(ccc3ccc4ccccc4c32)c1
inactive: dose: 75.0 mg/kg/injection, schedule: Q01DX001 (ip), vehicle: carboxymethylcellulose (CMC) 97 % of control

Brc1c2ccccc2cc2ccccc12
inactive: dose: 100.0 mg/kg/injection, schedule: Q04DX002 (ip), vehicle: gum acacia 101 % of control | dose: 200.0 mg/kg/injection, schedule: Q04DX002 (ip), vehicle: gum acacia 93 % of control | dose: 400.0 mg/kg/injection, schedule: Q04DX002 (ip), vehicle: gum acacia 96 % of control

O=C(Nc1cccc(C(F)(F)F)c1)N1CCN(c2ccccc2)CC1
inactive: [5] 103 % of control | [7] 96 % of control | [9] 106 % of control

CCCCSCC(N)C(=O)O (stereo not drawn)
inactive: [5] 96 % of control | dose: 100.0 mg/kg/injection, schedule: Q04DX003 (ip), vehicle: Klucel (hydroxypropylcellulose) (HPC) 92 % of control | [7] 96 % of control | dose: 200.0 mg/kg/injection, schedule: Q04DX003 (ip), vehicle: Klucel (hydroxypropylcellulose) (HPC) 94 % of control | [9] 98 % of control | dose: 400.0 mg/kg/injection, schedule: Q04DX003 (ip), vehicle: Klucel (hydroxypropylcellulose) (HPC) 103 % of control

COc1ccc(C(=O)N/N=C/c2c(Cl)cccc2Cl)cc1
inactive: [20] 92 % of control | [21] 90 % of control | [5] 93 % of control and 104 % of control

CCC(C)C(CCN(C)C)(CNC(=O)CN(CC)CC)c1cccc2ccccc12 (stereo not drawn)
inactive: [12] 96 % of control | [13] 91 % of control

Cc1ccc(C(=O)c2ccccc2Cc2ccc3ccccc3c2)cc1
inactive: [19] 100 % of control | [1] 94 % of control | [2] 96 % of control | [3] 93 % of control

O=C(Nc1nccs1)Nc1cccc(Cl)c1Cl
inactive: [20] 106 % of control | [21] 101 % of control

c1ccc(-c2ccccc2SSc2ccccc2-c2ccccc2)cc1
inactive: [14] 96 % of control | [15] 105 % of control | [16] 91 % of control

c1ccc2c(c1)ccc1c3ccccc3[nH]c21
inactive: [17] 93 % of control | [18] 105 % of control | dose: 400.0 mg/kg/injection, schedule: Q04DX003 (ip), vehicle: saline with Tween-80 96 % of control

CC(C)CCCC(C)C1CCC2C3CC=C4CC(S)CCC4(C)C3CCC12C (stereo not drawn)
inactive: dose: 60.0 mg/kg/injection, schedule: Q04DX003 (sc), vehicle: steriod suspending solution 100 % of control | dose: 120.0 mg/kg/injection, schedule: Q04DX003 (sc), vehicle: steriod suspending solution 109 % of control | dose: 240.0 mg/kg/injection, schedule: Q04DX003 (sc), vehicle: steriod suspending solution 105 % of control

Oc1c(O)c(Cl)c(Cl)c(Cl)c1Cl
inactive: dose: 12.5 mg/kg/injection, schedule: Q04DX003 (ip), vehicle: saline 97 % of control | [10] 95 % of control | [11] 98 % of control
